Results as given in patent US6747022B2, “Calcium salts of 1,5-benzodiazepine derivatives, process for producing the salts and drugs containing the same” (Zeria Pharmaceutical Co., Ltd., priority 1999, dated 2004).

Legend:
[1] = Test on hygroscopicity under high humidity conditions (1), 0.5 g sample; format: physicochemical
Protocol: (§1) Test 3 (Test on Hygroscopicity under High Humidity Conditions)
(§2) (1) A saturated aqueous solution of potassium sulfate was charged in a desiccator and was allowed to stand for at least one day in a temperature controlled room set at 25° C. The sample (0.5 g) was stored and weighed. Hygroscopicity was measured by its weight change. The relative humidity at that time was 97.3% RH.

CCK-B receptor = target: T1, CCK-B receptor (Cavia porcellus, UniProt H0VZC5); assay: Binding test to CCK-B receptor ([3H]CCK-8, cerebral cortex membranes); set-up: species or system guinea pig; conditions: inhibition of specific binding of 1.0 nM [3H]CCK-8, 25° C., 2 hours
T1 sequence (H0VZC5 1-426): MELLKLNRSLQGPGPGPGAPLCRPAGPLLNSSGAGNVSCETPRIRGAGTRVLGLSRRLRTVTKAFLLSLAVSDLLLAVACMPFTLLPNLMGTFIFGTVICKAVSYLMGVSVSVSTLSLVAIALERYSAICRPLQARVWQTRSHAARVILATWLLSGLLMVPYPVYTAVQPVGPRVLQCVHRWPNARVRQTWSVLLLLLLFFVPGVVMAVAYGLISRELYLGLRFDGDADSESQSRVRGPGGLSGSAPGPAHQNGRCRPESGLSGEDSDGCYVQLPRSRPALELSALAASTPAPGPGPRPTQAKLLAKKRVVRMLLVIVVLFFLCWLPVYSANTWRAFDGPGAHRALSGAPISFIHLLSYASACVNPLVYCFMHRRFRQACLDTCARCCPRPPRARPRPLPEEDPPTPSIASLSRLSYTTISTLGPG
Protocol: Binding Test to CCK-B Receptor
The cerebral cortex excised from a Hartley-strain male guinea pig was homogenized in 50 times the amount of a 50 mM Tris-HCl buffer (pH 7.4), followed by centrifugal separation at 50000×g for 10 minutes. Addition of the same amount of the same buffer to the precipitate thus obtained and centrifugation were repeated 2 times. The final precipitate was homogenized in a 10 mM HEPES buffer (pH 6.5) containing 5 mM magnesium chloride, 1 mM EGTA, 0.25 mg/ml bacitracin and 130 mM sodium chloride, and used as the receptor preparation.
Binding assay was conducted by adding, to 50 μl of a test compound solution, 50 μl of a [^3H]CCK-8 solution having the final concentration of 1.0 nM and 900 μl of the receptor preparation (protein content: 800 μg/tube) and reacting them at 25° C. for 2 hours. After completion of the reaction, the mixture was suction filtrated through a Whatman GF/B filter treated in advance with 0.1% BSA. Rightly after filtration, the filter was washed four times, each with 3 ml of ice-cold 50 mM Tris-HCl buffer (pH 7.4). After a scintillator was added to the filter and the resulting filter was then allowed to stand for a day, radioactivity on the filter was measured by a liquid scintillation counter. The binding of [^3H]CCK-8 in the presence of 1 μM CCK-8 when the test compound was not added was defined as non-specific binding. […]

[2] = test system: pentagastrin-stimulated gastric acid secretion; assay: Test on inhibition of pentagastrin-stimulated gastric acid secretion; format: in vivo, rat; conditions: SD rats, 0.03 mg/kg intraduodenal, acid output 1 to 4 hours after administration, pentagastrin 15 μg/kg/hr
Protocol: Test on Inhibition of Pentagastrin-stimulated Gastric Acid Secretion
Male Sprague-Dawley (SD)-strain rats were used. Under anesthesia with ether, each rat was subjected to the operation for pylorus ligation and placement of a duodenal catheter and gastric fistula. After completion of the operation, each rat was held in a Bollman-type cage and constantly infused with 15 μg/kg/hr of pentagastrin through the tail vein. Test compounds were suspended in a 0.5% sodium carboxymethylcellulose solution (which will hereinafter be called “vehicle”). Administration of the vehicle or test compound was carried out through the intraduodenal catheter 1 hour after the beginning of pentagastrin infusion. Acidity of the collected gastric juice was measured by an automatic titrator. Acid output was determined by multiplying the volume of gastric juice by its acidity. Inhibition of acid output for 3 hours from 1 to 4 hours after administration of the test compound was calculated by the following equation.
Inhibition (%)=(mean acid output of vehicle administered group−mean acid output of compound group)/mean acid output of vehicle administered group×100

[3] = Test on hygroscopicity under high humidity conditions (2), 0.1 g sample; format: physicochemical
Protocol: as §1
as §2, with “(2)” for “(1)”, “(0.1” for “(0.5”

For `CC(C)(C)C(=O)CN1C(=O)[C@H](NC(=O)Nc2cccc(C(=O)[O-])c2)CN(C2CCCCC2)c2ccccc21.CC(C)(C)C(=O)CN1C(=O)[C@H](NC(=O)Nc2cccc(C(=O)[O-])c2)CN(C2CCCCC2)c2ccccc21.[Ca+2]` [Compound of Example 1 (Ca salt), calcium (R)-(−)-3-[3-(1-tert-butylcarbonylmethyl-2-oxo-5-cyclohexyl-1,3,4,5-tetrahydro-2H-1,5-benzodiazepin-3-yl)ureido]benzoate], the “Hygroscopicity compared with the corresponding Na salt” value ([1]; 25° C., 97.3% RH, versus Na salt of Compound of Example 143 in WO98/25911) was “lower hygroscopicity”, the “Weight change (%) when stored at 25° C. and 97.3% RH” value (from here on “Weight change (%) when stored”) ([1]; storage time 0 day) was 0% and the “Weight change (%) when stored” value ([1]; storage time 1 day) was 4.61%. For the same molecule, the “Weight change (%) when stored” value ([1]; storage time 2 days) was 5.00%, the “Weight change (%) when stored” value ([1]; storage time 3 days) was 4.94% and the “Weight change (%) when stored” value ([1]; storage time 4 days) was 4.97%. For the same molecule, the “Weight change (%) when stored” value ([1]; storage time 10 days) was 5.43%, the “Weight change (%) when stored” value ([1]; storage time 14 days) was 5.41% and the IC50 (CCK-B receptor) was 1.68 nM. The “Inhibition of acid output (%)” value [2] was 42.3%.

With `CC(C)(C)C(=O)CN1C(=O)[C@H](NC(=O)Nc2cccc(C(=O)O)c2)CN(C2CCCCC2)c2ccccc21` [Compound of Example 1 in the free form, (R)-(−)-3-[3-(1-tert-butylcarbonylmethyl-2-oxo-5-cyclohexyl-1,3,4,5-tetrahydro-2H-1,5-benzodiazepin-3-yl)ureido]benzoic acid, reference compound] the IC50 (CCK-B receptor) was 1.45 nM and the “Inhibition of acid output (%)” value [2] was 4.8%.

In the case of `CC(C)(C)C(=O)CN1C(=O)[C@H](NC(=O)Nc2cccc(C(C)(C)C(=O)O)c2)CN(C2CCCCC2)c2ccccc21` [Compound of Example 4 in the free form, (R)-(−)-2-[3-[3-(1-tert-butylcarbonylmethyl-2-oxo-5-cyclohexyl-1,3,4,5-tetrahydro-2H-1,5-benzodiazepin-3-yl)ureido]phenyl]-2-methylpropionic acid, reference compound], the “Inhibition of acid output (%)” value ([2]; Table 2) is reported as 13.7%.

In the case of “calcium (R)-(−)-2-[3-[3-(1-tert-butylcarbonylmethyl-2-oxo-5-cyclohexyl-1,3,4,5-tetrahydro-2H-1,5-benzodiazepin-3-yl)ureido]phenyl]-2-methylpropionate [Compound of Example 4 (Ca salt)]”, the “Inhibition of acid output (%)” value ([2]; Table 2) is reported as 46.1%, the “Hygroscopicity compared with the corresponding Na salt” value ([3]; 25° C., 97.3% RH, versus Compound of Example 5 in WO99/64403) is reported as “lower hygroscopicity” and the “Weight change (%) when stored” value ([3]; storage days 0) is reported as 0%. For the same molecule, the “Weight change (%) when stored” value ([3]; storage days 2) was 8.15%, the “Weight change (%) when stored” value ([3]; storage days 4) was 7.87% and the “Weight change (%) when stored” value ([3]; storage days 7) was 8.38%. For the same molecule, the “Weight change (%) when stored” value ([3]; storage days 9) was 9.07%, the “Weight change (%) when stored” value ([3]; storage days 11) was 8.14% and the “Weight change (%) when stored” value ([3]; storage days 18) was 8.51%. The “Weight change (%) when stored” value ([3]; storage days 30) was 8.23%.
